The values that follow come from patent US20260226059A1, “HETEROCYCLIC COMPOUNDS AS PI3Ka INHIBITORS” (Pikavation Therapeutics, Inc., priority 2023, published 2026).

The assay concerns T47D (PIK3CA H1047R) cells. In words: PS473 AKT assay in T47D (PIK3CA H1047R) cells. The class given is cell-based. The settings on record: Homo sapiens, pSer473 AKT, DMEM with 2.5% FBS, compound treatment 2 h, read-out: T47D_IC50. On the procedure: T47D (PIK3CA H1047R) cells were cultured using 10-cm petri dishes with recommended medium plus 10% fetal bovine serum. One day before the assay, cells were seeded in 96-well plates. After overnight incubation, the medium was changed to DMEM with 2.5% fetal bovine serum (FBS) and the cells were treated with different concentrations of the compounds for 2 h. Cells were then fixed using 4% paraformaldehyde at room temperature for 20 min. Aspirate 4% paraformaldehyde, and wash cells using 1× regular phosphate buffered saline 3 times, 5 min each. Aspirate any residual phosphate buffered saline and block cells using 10% goat serum containing 1% bovine serum albumin and 0.3% Triton X-100 at room temperature for 1 h. Without any additional washing, primary antibodies (rabbit anti-pSer473 AKT) were diluted using blocking buffer and added at a final volume of 50 microliter per well. Keep assay plates with primary antibodies overnight at 4° C. Wash cells using 1× regular phosphate buffered saline 3 times, 5 min each. After the final wash, incubate cells with horseradish peroxidase-conjugated secondary antibodies (goat Anti-rabbit IgG) diluted using the same blocking buffer at room temperature for 1 h. Wash cells thoroughly using 1× regular phosphate buffered saline 3 times, 5 min each. Aspirate any residual phosphate buffered saline. Add Super-Signal ELISA Pico Chemiluminescent Substrate at a final volume of 100 microliter per well. Read plates on i3x Multi-Mode Microplate Reader and calculate IC50 values using GraphPad Prism software.
`CCN1CCn2c1nc1c(C(C)Nc3ccccc3C(=O)O)cc(C)cc1c2=O` (centres unmarked) [Example 1, 2-((1-(1-Ethyl-7-methyl-5-oxo-1,2,3,5-tetrahydroimidazo[2,1-b]quinazolin-9-yl)ethyl)amino)benzoic acid]: the IC50 lay within 1000 to 5000 nM.
`CCN1CCn2c1nc1c(C(C)Nc3ccc(Cl)nc3C(=O)O)cc(C)cc1c2=O` (centres unmarked) [Example 2, 6-Chloro-3-((1-(1-ethyl-7-methyl-5-oxo-1,2,3,5-tetrahydroimidazo[2,1-b]quinazolin-9-yl)ethyl)amino)picolinic acid]: the IC50 is under 1000 nM.
Take `Cc1cc(C(C)Nc2ccccc2C(=O)O)c2nc3n(c(=O)c2c1)CCc1ccccc1-3` (centres unmarked) [Example 3, 2-((1-(10-Methyl-8-oxo-5,8-dihydro-6H-isoquinolino[1,2-b]quinazolin-12-yl)ethyl)amino)benzoic acid]: the IC50 was under 1000 nM.
For the compound `Cc1cc(C(C)Nc2ccc(C)nc2C(=O)O)c2nc3n(c(=O)c2c1)CCc1ccccc1-3` (centres unmarked) [Example 4, 6-Methyl-3-((1-(10-methyl-8-oxo-5,8-dihydro-6H-isoquinolino[1,2-b]quinazolin-12-yl)ethyl)amino)picolinic acid], the IC50 is under 1000 nM.
Take `Cc1cc(C(C)Nc2ccc(Cl)nc2C(=O)O)c2nc3n(c(=O)c2c1)CCc1ccccc1-3` (centres unmarked) [Example 5, 6-Chloro-3-((1-(10-methyl-8-oxo-5,8-dihydro-6H-isoquinolino[1,2-b]quinazolin-12-yl)ethyl)amino)picolinic acid]: the IC50 is under 1000 nM.
